Paper PMC4074815, “An Impermeant Ganetespib Analog Inhibits Extracellular Hsp90-Mediated Cancer Cell Migration that Involves Lysyl Oxidase 2-like Protein” (Cancers, 2014)

Biological target: T1, Hsp90 alpha (Homo sapiens, UniProt P07900)
T1 construct: gene HSP90AA1; Hsp90alpha recombinant enzyme (BPS Bioscience Hsp90α assay kit, Cat #50294)
Test: fluorescence polarization competition with FITC-labeled geldanamycin
Type: binding

IC50: 62 nM
SMILES: CC(C)c1cc(-c2nnc(O)n2-c2ccc3c(ccn3CCNC(=O)CCCC[C@@H]3SC[C@@H]4NC(=O)N[C@@H]43)c2)c(O)cc1O [STA-12-7191]
